Results from patent US8546608B2, “Proteasome inhibitors and methods of using the same” (Cephalon, Inc., priority 2003, dated 2013).

Experiments:
[1] = target: T1, 20S Human Erythrocyte Proteasome (HEP) (Homo sapiens, UniProt P20618+P28074); assay: Chymotrypsin-like activity of 20S Human Erythrocyte Proteasome (HEP), IC50 determination; assay type: biochemical; details: assay of Example C, inhibition of HEP
T1 construct: 20S Human Erythrocyte Proteasome (HEP), purchased from Immatics Biotechnologies Inc; purchased Immatics Biotechnologies Inc., Tübingen, Germany; host or cells: human erythrocytes (natural source)
Procedure, shortened: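 20S proteasome at 0.2 μg/mL (about 0.6 nM catalytic sites) in 20 mM Tris with 0.04% SDS, preincubated 15 min at 37° C with inhibitor before Suc-LLVY-AMC (100 μM final). AMC fluorescence read in the linear range; triplicates, IC50 from concentration series.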

[2] = target: T2, proteasome in Molt-4 cells (human leukemia) (Homo sapiens, UniProt P20618+P28074); assay type: cell-based; details: assay of Example E, inhibition of MOLT4; read-out: MOLT4 (EC50)
T2 sequence (P28074 60-263): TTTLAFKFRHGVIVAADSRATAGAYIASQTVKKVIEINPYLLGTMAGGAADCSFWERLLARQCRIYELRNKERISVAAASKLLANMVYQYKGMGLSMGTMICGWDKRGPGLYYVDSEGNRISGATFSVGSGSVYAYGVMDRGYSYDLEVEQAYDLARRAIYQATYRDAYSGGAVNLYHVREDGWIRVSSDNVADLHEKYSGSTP
T2 sequence (P20618 29-241): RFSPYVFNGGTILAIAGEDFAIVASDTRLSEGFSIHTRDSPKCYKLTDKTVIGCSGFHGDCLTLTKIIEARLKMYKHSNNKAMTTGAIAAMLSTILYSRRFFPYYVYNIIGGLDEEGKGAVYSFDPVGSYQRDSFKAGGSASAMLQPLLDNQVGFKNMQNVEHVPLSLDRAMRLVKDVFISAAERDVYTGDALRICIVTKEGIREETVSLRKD
Procedure, shortened: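 Intact Molt-4 cells (6×10^6 cells/mL) in HEPES-buffered saline were preincubated with inhibitor 15 min at 37 °C, then given cell-permeable MeOSuc-FLF-AFC at 25 μM final.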

IC50 [1] [nM]	EC50 [2] [µM]	SMILES
< 10	0.2 to 2	CCCCC[C@H]1CC[C@H](C(=O)N[C@@H](CCCNC(=N)N[N+](=O)[O-])C(=O)N[C@@H](CC(C)C)B(O)O)CC1 [E.2.6, Boronic acid, [(1R)-1-[[(2S)-5-[[imino(nitroamino)methyl]amino]-2-[(trans-4-pentylcyclohexanecarbonyl)amino]-1-oxopentyl]amino]-3-methylbutyl]]
< 10	2 to 10	CC(C)C[C@H](NC(=O)[C@H](CCCNC(=N)N[N+](=O)[O-])NC(=O)CCCc1ccccc1)B(O)O [E.2.7, Boronic acid, [(1R)-1-[[(2S)-5-[[imino(nitroamino)methyl]amino]-2-[(4-phenylbutanoyl)amino]-1-oxopentyl]amino]-3-methylbutyl]]
< 10	2 to 10	CC(C)C[C@H](NC(=O)[C@H](CCCNC(=N)N[N+](=O)[O-])NC(=O)c1ccc(C(C)(C)C)cc1)B(O)O [E.2.8, Boronic acid, [(1R)-1-[[(2S)-5-[[imino(nitroamino)methyl]amino]-2-[(4-(1,1-dimethylethyl)benzoyl)amino]-1-oxopentyl]amino]-3-methylbutyl]]
< 10	0.2 to 2	CCCCCCCCC(=O)N[C@@H](CCCNC(=N)N[N+](=O)[O-])C(=O)N[C@@H](CC(C)C)B(O)O [E.2.9, Boronic acid, [(1R)-1-[[(2S)-5-[[imino(nitroamino)methyl]amino]-2-[(nonanoyl)amino]-1-oxopentyl]amino]-3-methylbutyl]]
< 10	> 10	CC(C)C[C@H](NC(=O)[C@H](CCCNC(=N)N[N+](=O)[O-])NC(=O)c1cccs1)B(O)O [E.2.10, Boronic acid, [(1R)-1-[[(2S)-5-[[imino(nitroamino)methyl]amino]-2-[(2-thiophenecarbonyl)amino]-1-oxopentyl]amino]-3-methylbutyl]]
< 10	> 10	CC(C)C[C@H](NC(=O)[C@H](CCCNC(=N)N[N+](=O)[O-])NC(=O)c1cccc(F)c1F)B(O)O [E.2.11, Boronic acid, [(1R)-1-[[(2S)-5-[[imino(nitroamino)methyl]amino]-2-[(2,3-difluorobenzoyl)amino]-1-oxopentyl]amino]-3-methylbutyl]]
< 10	< 0.2	CCCCCCCCCCCC(=O)N[C@@H](CCCNC(=N)N[N+](=O)[O-])C(=O)N[C@@H](CC(C)C)B(O)O [E.2.12, Boronic acid, [(1R)-1-[[(2S)-5-[[imino(nitroamino)methyl]amino]-2-[(dodecanoyl)amino]-1-oxopentyl]amino]-3-methylbutyl]]
< 10	2 to 10	CC(C)C[C@H](NC(=O)[C@H](CCCNC(=N)N[N+](=O)[O-])NC(=O)Cc1ccccc1I)B(O)O [E.2.13, Boronic acid, [(1R)-1-[[(2S)-5-[[imino(nitroamino)methyl]amino]-2-[[2-(2-iodophenyl)acetyl]amino]-1-oxopentyl]amino]-3-methylbutyl]]
< 10	> 10	CC(C)C[C@H](NC(=O)[C@H](CCCNC(=N)N[N+](=O)[O-])NC(=O)C1CCCCC1)B(O)O [E.2.14, Boronic acid, [(1R)-1-[[(2S)-5-[[imino(nitroamino)methyl]amino]-2-[(cyclohexanecarbonyl)amino]-1-oxopentyl]amino]-3-methylbutyl]]
< 10	> 10	Cc1ccccc1C(=O)N[C@@H](CCCNC(=N)N[N+](=O)[O-])C(=O)N[C@@H](CC(C)C)B(O)O [E.2.15, Boronic acid, [(1R)-1-[[(2S)-5-[[imino(nitroamino)methyl]amino]-2-[(2-methylbenzoyl)amino]-1-oxopentyl]amino]-3-methylbutyl]]
< 10	> 10	CC(C)C[C@H](NC(=O)[C@H](CCCNC(=N)N[N+](=O)[O-])NC(=O)[C@@H](C)c1ccccc1)B(O)O [E.2.16, Boronic acid, [(1R)-1-[[(2S)-5-[[imino(nitroamino)methyl]amino]-2-[((2S)-2-phenylpropanoyl)amino]-1-oxopentyl]amino]-3-methylbutyl]]
< 10	2 to 10	CC(C)C[C@H](NC(=O)[C@H](CCCNC(=N)N[N+](=O)[O-])NC(=O)c1ccc2ccccc2n1)B(O)O [E.2.18, Boronic acid, [(1R)-1-[[(2S)-5-[[imino(nitroamino)methyl]amino]-2-[(quinoline-2-carbonyl)amino]-1-oxopentyl]amino]-3-methylbutyl]]
< 10	2 to 10	CCCCCC/C=C/C(=O)N[C@@H](CCCNC(=N)N[N+](=O)[O-])C(=O)N[C@@H](CC(C)C)B(O)O [E.2.19, Boronic acid, [(1R)-1-[[(2S)-5-[[imino(nitroamino)methyl]amino]-2-[(non-2-enoyl)amino]-1-oxopentyl]amino]-3-methylbutyl]]
< 10	2 to 10	CC(C)C[C@H](NC(=O)[C@H](CCCNC(=N)N[N+](=O)[O-])NC(=O)C1CCCCC1C)B(O)O (stereo partly drawn) [E.2.20, Boronic acid, [(1R)-1-[[(2S)-5-[[imino(nitroamino)methyl]amino]-2-[(2-methylcyclohexanecarbonyl)amino]-1-oxopentyl]amino]-3-methylbutyl]]
< 10	2 to 10	CCCC/C=C/C(=O)N[C@@H](CCCNC(=N)N[N+](=O)[O-])C(=O)N[C@@H](CC(C)C)B(O)O [E.2.21, Boronic acid, [(1R)-1-[[(2S)-5-[[imino(nitroamino)methyl]amino]-2-[(hept-2-enoyl)amino]-1-oxopentyl]amino]-3-methylbutyl]]
< 10	0.2 to 2	Cc1ccc(OCC(=O)N[C@@H](CCCNC(=N)N[N+](=O)[O-])C(=O)N[C@@H](CC(C)C)B(O)O)cc1C [E.2.22, Boronic acid, [(1R)-1-[[(2S)-5-[[imino(nitroamino)methyl]amino]-2-[[2-(3,4-dimethylphenoxy)acetyl]amino]-1-oxopentyl]amino]-3-methylbutyl]]
< 10	2 to 10	CC(C)C[C@H](NC(=O)[C@H](CCCNC(=N)N[N+](=O)[O-])NC(=O)C1CC2CCC1C2)B(O)O (stereo partly drawn) [E.2.25, Boronic acid, [(1R)-1-[[(2S)-5-[[imino(nitroamino)methyl]amino]-2-[(bicyclo[2.2.1]heptane-2-carbonyl)amino]-1-oxopentyl]amino]-3-methylbutyl]]
< 10	> 10	CC(C)CCCC(=O)N[C@@H](CCCNC(=N)N[N+](=O)[O-])C(=O)N[C@@H](CC(C)C)B(O)O [E.2.26, Boronic acid, [(1R)-1-[[(2S)-5-[[imino(nitroamino)methyl]amino]-2-[(5-methylhexanoyl)amino]-1-oxopentyl]amino]-3-methylbutyl]]
< 10	> 10	Cc1nc(C)c(C(=O)N[C@@H](CCCNC(=N)N[N+](=O)[O-])C(=O)N[C@@H](CC(C)C)B(O)O)s1 [E.2.27, Boronic acid, [(1R)-1-[[(2S)-5-[[imino(nitroamino)methyl]amino]-2-[(2,4-dimethylthiazole-5-carbonyl)amino]-1-oxopentyl]amino]-3-methylbutyl]]
< 10	> 10	CC(C)C[C@H](NC(=O)[C@H](CCCNC(=N)N[N+](=O)[O-])NC(=O)c1ccoc1)B(O)O [E.2.28, Boronic acid, [(1R)-1-[[(2S)-5-[[imino(nitroamino)methyl]amino]-2-[(furan-3-carbonyl)amino]-1-oxopentyl]amino]-3-methylbutyl]]
